Laboratory results published in PMC5111108, “An insecticide resistance-breaking mosquitocide targeting inward rectifier potassium channels in vectors of Zika virus and malaria” (Scientific Reports, 2016).

Experiments:
AeKir1 [1] = target: T1, AeKir1 (Aedes aegypti, UniProt L0EQS9); test: Tl+ flux assay, AeKir1; type: cell-based
T1 sequence (L0EQS9 1-486): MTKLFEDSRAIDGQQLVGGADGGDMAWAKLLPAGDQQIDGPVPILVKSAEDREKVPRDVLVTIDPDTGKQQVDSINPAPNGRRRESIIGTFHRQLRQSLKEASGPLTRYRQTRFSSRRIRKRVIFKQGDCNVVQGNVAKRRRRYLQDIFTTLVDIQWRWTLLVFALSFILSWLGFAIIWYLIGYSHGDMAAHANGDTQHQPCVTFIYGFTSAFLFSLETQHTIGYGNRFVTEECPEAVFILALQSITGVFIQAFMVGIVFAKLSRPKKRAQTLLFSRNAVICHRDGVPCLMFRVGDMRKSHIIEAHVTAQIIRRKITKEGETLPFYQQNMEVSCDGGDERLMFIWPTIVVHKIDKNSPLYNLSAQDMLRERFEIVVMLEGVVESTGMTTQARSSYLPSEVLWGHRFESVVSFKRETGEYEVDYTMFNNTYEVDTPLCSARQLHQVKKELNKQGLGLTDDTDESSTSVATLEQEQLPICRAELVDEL

Ae. aegypti = test: In vivo diuresis assay in adult female Ae. aegypti (LVP); set-up: species or system Aedes aegypti; settings: topical 1.7 μg/mg mosquito 2 h before injection of 900 nL K+-PBS, 1 h
Procedure: The excretory capacity of adult female Ae. aegypti (LVP strain) was measured as described previously. […] The K^+-PBS consisted of the following (in mM): 92.2 NaCl, 47.5 KCl, 10 Na2HPO4 and 2 KH2PO4 (pH 7.5). Each treatment group of 5 mosquitoes was transferred into a separate graduated, packed-cell volume tube (MidSci, St. Louis, MO) and held for 1 h at 28 °C. The volume excreted by the mosquitoes was measured visually via the graduated column at the bottom of the tube. At least 8 replicates (5 mosquitoes per replicate) were performed for each treatment. All mosquitoes were confirmed to be alive at the end of 1 h.

An. gambiae = test: Fecundity (eggs laid) in An. gambiae; type: in vivo, Anopheles gambiae; settings: VU041 ~1 μg/mg, VU937 ~10 μg/mg, topical within 1 h after engorgement, 72 h post blood feeding
Procedure: After treatment with the respective drugs, individual female mosquitoes were transferred to Drosophila vials (Fisher Scientific, Pittsburg, OA) containing 2 mL of water. The total number of eggs were counted 72-hours after being transferred to the vial. Any mosquitoes that died during this 72-hour period were excluded from the analysis. […] At least 25 female mosquitoes were used per replicate for each treatment group; each treatment was repeated on three separate broods, giving a total number of individuals studied ranging from 75–113 for each group.

AeKir1 [2] = target: T1, AeKir1; test: Two-electrode voltage clamp in Xenopus oocytes expressing AeKir1 or AeKir2B; type: cell-based; settings: 50 μM, inward K+ currents at -140 mV
Procedure: Heterologous expression of AeKir1 or AeKir2B was performed in Xenopus laevis oocytes as described previously. Current-voltage (I-V) relationships of oocytes were acquired by clamping the membrane potential (Vm) near the spontaneous, resting Vm and then initiating a voltage-stepping protocol (via the Clampex module of pCLAMP) consisting of 20 mV steps from −140 mV to +40 mV (100 ms each). Additional details are provided in the Supplemental Methods.
Patch clamp electrophysiology
Patch electrodes were pulled from silanized 1.5 mm outer diameter borosilicate microhematocrit tubes using a P-1000 Flaming/Brown micropipette puller (Sutter Instrument, Novato CA, USA). Electrode resistance ranged from 2 -4 MΩ. Whole-cell currents were recorded under voltage-clamp conditions using an Axopatch 200B amplifier (Molecular D evices, Sunn yvale, CA). […]
The voltage clamp was then turned off during solution changes, and when the oocyte reach ed a n ew stead y-state Vm (~90 s) the I-V relationship of the ooc yt e was acquired again. All Vm and Im v alues were digitally recorded (Digidata 1440A Data Acquisition System, Molecular Devices) and the r esulting I-V plots were generated with the Clampfit module of pC LAMP. […]
[…]

O=C(Cn1nc(C(F)(F)F)c2c1CCCC2)N1CCCc2ccccc21 [VU041, 1-(3,4-dihydroquinolin-1(2H)-yl)-2-(3-(trifluoromethyl)-4,5,6,7-tetrahydro-1H-indazol-1-yl)ethan-1-one]
IC50 (AeKir1 [1]): 1.7 µM | diuretic capacity (urine excreted) compared to controls, reduction (Ae. aegypti): ~ 51% | median number of eggs laid per mosquito vs control (An. gambiae): significantly lower median number of eggs per mosquito | preference of inhibition AeKir1 vs AeKir2B (AeKir1 [2]): preferentially inhibited AeKir1 over AeKir2B
